According to ChEMBL document CHEMBL1201862, “PubChem BioAssay data set” (2004):
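Briefly, cells in 96-well plates were exposed to five compound concentrations for 48 h, and endpoints were estimated by linear interpolation. The concentration for 50% growth inhibition is given as GI50.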 Activity calls are given as the source filed them. No stated cut-off is given here; in the data, active = GI50 up to about 1.1 µM and inactive = higher. Peptide text beside a SMILES is read from it. * marks the point of attachment. OSu = O=C1CCC(=O)N1O*

Tests used:
Test in all cases: NCI tumour cell line growth inhibition, 48 h
DLD-1 = system: DLD-1
M19-MEL = system: M19-MEL
SNB-78 = system: SNB-78
HOP-18 = system: HOP-18
LXFL 529 = system: LXFL 529
KM-20L2 = system: KM-20L2
XF498 = system: XF498
MDA-N = system: MDA-N
RXF 631 = system: RXF 631

Structure (SMILES) | GI50 (DLD-1) | GI50 (M19-MEL) | GI50 (HOP-18) | GI50 (LXFL 529) | GI50 (KM-20L2) | GI50 (XF498) | GI50 (MDA-N) | other results
C[Si](C)(C)/C=C/CCC(C=O)(CCCl)c1ccccc1 (configuration not stated) | 29.5 µM (inactive) | 27.7 µM (inactive) | 27.4 µM (inactive) | 30.1 µM (inactive) | 28.8 µM (inactive) | 18.7 µM (inactive) | – | GI50 (SNB-78): 23.8 µM (inactive)
CNc1cccc2c1C(C)C[C@]1(C)C(=O)Nc3ccccc3[C@H]21 (some centres not stated) | – | – | – | – | – | – | 26.6 µM (inactive) | –
Clc1ccc2c(Cl)ncnc2c1 | > 100 µM (inactive) | > 100 µM (inactive) | – | – | > 100 µM (inactive) | > 100 µM (inactive) | – | –
COc1ccc2c(c1)CCN1CCc3ccccc3CC21 (configuration not stated) | – | – | – | – | – | – | 27.4 µM (inactive) | –
COc1ccccc1N(CN1C(=O)CCC1C(=O)O)C(C)=O (configuration not stated) | – | – | – | – | – | – | > 100 µM (inactive) | –
O=C1C(Cl)C(c2cccc(O)c2)N1n1cnc2ccccc2c1=O (configuration not stated) | > 100 µM (inactive) | > 100 µM (inactive) | 39.9 µM (inactive) | > 100 µM (inactive) | > 100 µM (inactive) | > 100 µM (inactive) | – | GI50 (SNB-78): > 100 µM (inactive)
Cc1cccc(-c2nnc3s/c(=C\c4ccc(N(C)C)cc4)c(=O)n23)c1 | > 100 µM (inactive) | > 100 µM (inactive) | > 100 µM (inactive) | > 100 µM (inactive) | > 100 µM (inactive) | > 100 µM (inactive) | – | GI50 (SNB-78): > 100 µM (inactive)
CC[C@@]1(O)C(=O)OCc2c1cc1n(c2=O)Cc2c-1nc1ccccc1c2/C=N\NC(=O)C(N)Cc1c[nH]cn1 (some centres not stated) | – | – | – | – | – | – | 1.9 µM (inactive) | –
O=C(Nc1nnc(-c2ccccc2)o1)C(SC(=S)N1CCCCC1)c1ccccc1 (configuration not stated) | – | – | – | – | – | – | 20.7 µM (inactive) | –
CC1=NNC(=O)C1C1C(=O)NN=C(c2c[nH]c3ccccc23)C1Br (configuration not stated) | – | – | – | – | – | – | 59.8 µM (inactive) | –
CSC1(C(=O)O)C2CCC3C2CCC31 (configuration not stated) | – | – | – | – | – | – | > 100 µM (inactive) | –
CCc1cccc(C(C)C)c1NC(=O)C(=O)C(Cc1nc2ccccc2nc1O)C(=O)OC (configuration not stated) | > 100 µM (inactive) | > 100 µM (inactive) | > 100 µM (inactive) | > 100 µM (inactive) | > 100 µM (inactive) | > 100 µM (inactive) | – | –
COC(=O)/C(=N\N)C(C(=O)C(=O)Nc1cc(Cl)ccc1Cl)c1nc2ccc([N+](=O)[O-])cc2nc1O (configuration not stated) | – | – | – | – | – | – | > 100 µM (inactive) | –
COc1ccccc1NC(=O)C1=C(C)NC(C)=C(C(=O)Nc2ccccc2OC)C1c1ccc(C)cc1 | – | 42.5 µM (inactive) | 76 µM (inactive) | 74.1 µM (inactive) | > 100 µM (inactive) | 24.3 µM (inactive) | – | GI50 (SNB-78): 56.5 µM (inactive)
CCCC(O)c1ccc2[nH]c3c(C)cc([N+](=O)[O-])c(C)c3c2c1 (configuration not stated) | 54.1 µM (inactive) | > 100 µM (inactive) | > 100 µM (inactive) | – | – | > 100 µM (inactive) | – | GI50 (SNB-78): > 100 µM (inactive)
CCOP(=O)(OCC)/C(C#N)=C/c1c(C)[nH]c2ccccc12 | – | – | – | – | – | – | > 100 µM (inactive) | –
COc1c2c3c4c(c(OC)c(=O)c5c(O)cc(OC)c(c6c(OC)cc(O)c(c1=O)c63)c54)C(C(C)O)C2C(C)O (configuration not stated) | – | – | – | – | – | – | 0.767 µM (active) | –
O=C(Oc1ccc2c(-c3ccccc3)c(C(=O)Nc3ccc(Cl)cc3)c(=O)oc2c1)c1ccccc1 | > 100 µM (inactive) | > 100 µM (inactive) | > 100 µM (inactive) | – | > 100 µM (inactive) | 58.1 µM (inactive) | – | –
C=CCn1c(=O)c2ccccc2[n+]2c(C)c(C(=O)OCC)sc12 | – | – | – | – | – | – | > 100 µM (inactive) | –
Nc1nc2c(ncn2C2C=CC(COS(N)(=O)=O)C2)c(=O)[nH]1 (configuration not stated) | – | – | – | – | – | – | > 100 µM (inactive) | –
CCOC(=O)C(CC/C=C\c1ccccc1)N1CCC[C@H]1C(=O)OC (some centres not stated) | > 100 µM (inactive) | > 100 µM (inactive) | > 100 µM (inactive) | > 100 µM (inactive) | > 100 µM (inactive) | > 100 µM (inactive) | – | GI50 (SNB-78): > 100 µM (inactive)
COC1=CC(=O)[C@]2(C)[C@H](C1=O)C(C)[C@H]2c1ccc(OC)cc1 (some centres not stated) | > 100 µM (inactive) | > 100 µM (inactive) | – | > 100 µM (inactive) | – | > 100 µM (inactive) | – | GI50 (SNB-78): > 100 µM (inactive)
COC(=O)C1=C(C(=O)OC)C(C(=O)OC)C(C(=O)OC)=C1C(=O)OC | > 100 µM (inactive) | – | > 100 µM (inactive) | > 100 µM (inactive) | > 100 µM (inactive) | – | – | GI50 (RXF 631): > 100 µM (inactive)
COc1cccc(/C=C\c2ccc(O)cc2)c1 | – | – | – | – | – | – | 21.1 µM (inactive) | –
COc1cc2ccccc2oc1=O | – | – | – | – | – | – | > 100 µM (inactive) | –
C=C1C(=O)O[C@H]2C(=O)[C@H](C)CCC/C(C)=C/CC[C@@]3(C)O[C@@H]3C[C@@H]12 | – | – | – | – | – | – | 2.74 µM (inactive) | –
NCCCCC(NC(=O)C(N)Cc1ccc(O)cc1)C(=O)NC(CCCCN)C(=O)NC(CCCCN)C(=O)ON1C(=O)CCC1=O (configuration not stated) (H-YKKK-OSu; configuration not given here) | – | – | – | – | – | – | > 100 µM (inactive) | –
Nc1nc(O)c2[nH]nnc2n1 [8-AZAGUANINE] | 20 µM (inactive) | – | 0.339 µM (active) | 16.3 µM (inactive) | 9.2 µM (inactive) | – | 0.308 µM (active) | GI50 (SNB-78): 1.02 µM (active)
O[C@H]1[C@H]2c3cc4c(cc3CN3CCC(=C[C@@H]1O)[C@H]23)OCO4 [LYCORINE] | – | – | – | – | – | – | 2.59 µM (inactive) | –
